Reference: publication PMC3632115 (Nucleic Acids Research, 2013)

Target: T1, Pif1 (Saccharomyces cerevisiae, UniProt P07271)
T1 sequence (P07271 46-859): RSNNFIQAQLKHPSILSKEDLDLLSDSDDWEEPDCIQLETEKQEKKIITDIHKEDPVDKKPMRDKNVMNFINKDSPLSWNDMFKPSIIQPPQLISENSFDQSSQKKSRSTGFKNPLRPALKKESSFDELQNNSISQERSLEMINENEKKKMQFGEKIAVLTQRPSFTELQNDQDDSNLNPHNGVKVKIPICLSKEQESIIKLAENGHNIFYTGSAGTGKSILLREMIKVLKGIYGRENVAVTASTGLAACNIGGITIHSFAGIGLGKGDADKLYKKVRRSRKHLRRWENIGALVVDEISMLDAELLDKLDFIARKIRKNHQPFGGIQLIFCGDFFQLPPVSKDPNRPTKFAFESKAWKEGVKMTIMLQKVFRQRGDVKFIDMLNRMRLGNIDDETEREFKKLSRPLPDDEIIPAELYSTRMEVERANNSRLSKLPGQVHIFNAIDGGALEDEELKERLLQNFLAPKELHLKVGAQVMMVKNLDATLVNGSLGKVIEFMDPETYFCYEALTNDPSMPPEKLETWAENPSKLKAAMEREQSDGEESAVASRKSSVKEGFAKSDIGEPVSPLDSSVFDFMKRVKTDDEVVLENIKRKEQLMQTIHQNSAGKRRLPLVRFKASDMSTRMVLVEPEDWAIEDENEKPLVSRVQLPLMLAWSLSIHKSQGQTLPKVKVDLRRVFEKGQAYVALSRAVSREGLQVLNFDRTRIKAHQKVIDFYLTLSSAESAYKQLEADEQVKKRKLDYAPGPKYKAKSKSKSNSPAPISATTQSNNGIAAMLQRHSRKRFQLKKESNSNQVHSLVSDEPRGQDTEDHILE
Experiment: stopped-flow Cy3 fluorescence, dissociation of pre-formed Pif1-dT20-Cy3 complex
Assay type: binding
Conditions: Buffer T200 (200 mM NaCl, pH 8.3, 5 mM MgCl2), 22°C; 1 mM ADP, 0.1 mg/ml heparin

**Q.** Which “apparent rate of dissociation” value does the source give for `Nc1ncnc2c1ncn2[C@@H]1O[C@H](COP(=O)(O)OP(=O)(O)O)[C@@H](O)[C@H]1O` [ADP] here?
**A.** This is true also for ADP, the product of ATP hydrolysis (Figure 1b, green)
